# Results: patent US6660742B2, “Compositions and methods of the use thereof achiral analogues of CC-1065 and the duocarmycins” (priority 2000, dated 2003)
# Where two headings read alike, the source gives them in different places.
# Experiments:
# L1210 leukemia = conditions: carzelesin 400 μg/kg, adozelesin 100 μg/kg; cited from earlier work
# P815 mastocytoma cells = test: MTT cytotoxicity on P815 cells; type: cell-based, murine; conditions: 72 hr incubation
# Protocol: (§1) The P815 and L1210 cell lines were obtained from American Type Tissue Culture Collection (ATCC). The cell lines were grown in Delbecco's Modified Eagle Medium (DMEM, Atlanta Biologicals) supplemented with 10% fetal bovine serum, Hepes Buffer (2 mM, Mediatech Cellgro, 25-060-Cl), L-Glutamine (2 mM, Mediatech Cellgro), and penicillin/streptomycin (50,000 units penicillin, 50,000 […], Atlanta Biologicals). Cells were maintained at 37° C. in a 5% humidified CO2 atmosphere. Cultured cells were counted using a hemocytometer and resuspended in fresh DMEM at a concentration of 8×10^5 cells/mL. This cell suspension (100 μL) was added to 96 well flat -bottom cell culture plates. At this concentration, 80,000 cells were seeded in each well. Drug solutions (dissolved in DMSO and diluted in DMEM) were added to each well (5 μL/well) resulting in final concentrations ranging from 1×10^−4 to 1×10^−12 M. Quadruplicate wells were prepared for each drug concentration. The plates were incubated for 72 hr at 37° C. in a 5% CO2 atmosphere. MTT (3-(4,5-dimethylthiazol-2-yl)-2,5-diphenyl tetrazolium bromide) was dissolved in PBS (5 mg/ml). After the indicated cell incubation period, 10 μL of this stock MTT solution was added to each well and the plates were further incubated for 4 h at 37° C. in a 5% CO2 atmosphere. […] The contents of the well were mixed thoroughly by pipetting the cell suspension up and down and the plates were allowed to sit at room temperature for 15 min in order to allow for full development of the purple color. The plates were read on a Dynatech Plate Reader, utilizing Dynex Revelation 3.2 software, with a test wavelenth of 570 nm and a reference wavelength of 630 nm.
# L1210 leukemia cells = test: MTT cytotoxicity on L1210 cells; type: cell-based, murine; conditions: 72 hr incubation
# Protocol: as §1
# supercoil pBR322 DNA = test: pBR322 strand nicking assay; type: biochemical
# Excerpt: When a compound is covalently bound to a purine-N3 in the minor groove of DNA, the adduct is thermally unstable. It is readily hydrolyzed to produce a DNA strand (2). Consequently, the formation of adenine-N3 (or guanine-N3) alkylation adducts can be detected by thermal conversion of supercoil pBR322 DNA (Form I) to nicked open […] DNA (Form II) as a result of the formation of single strand breaks. These two different forms of pBR322 DNA can then be separated by agarose gel electrophoresis, and the relative amounts of each form can be determined by densitometry of methylene blue stained gels (39). The supercoil form of pBR322 DNA is more compact than the open circular form, and as a result, moves further down the gel towards the positive electrode.
# Solutions of the drugs dissolved in N,N-dimethylacetamide (DMA) were made at 0.10 mM concentrations, and were always stored in the refrigerator.
# Tris buffer solution at pH 7.4 at 25° C. and 0.010 M was made from Tris HCl (0.661 g), Tris base (0.097 g) diluted to a 100 mL volume with distilled water. Then EDTA-Na2—2H2O (0.186 g) and KCl (3.72 g) were added to the Tris HCl solution and diluted to 500 mL volume with distilled water. A TBE solution was prepared from Carolina Lot #4020602 Electrophoresis buffer 20 times TBE diluted to a volume of three liters with deionized water. The agarose gel was prepared from agarose low EEO (0.32 g) dissolved in TBE buffer (40 mL) and heated in a microwave oven until dissolved.
# The pBR322 DNA (100 μg/100 μL) from Pharmacia Biotech was in a buffer (10 mM Tris-HCl pH 7.5, and 1 mM EDTA). The DNA was prepared from plasmid DNA isolated from E. coli HB101 by the alkaline lysate procedure and was purified by Sepharcryl S-100 chromatography followed by CsCl-ethidium bromide centrifugation.
# The alkylation samples were prepared by adding DNA (10 μL), Tris-EDTA KCl buffer (18 μL), and compound (2 μL) at 100 μM concentration to Eppendorf tubes. The samples were incubated at 40° C. for 40 h. The samples were removed then centrifuged for one minute. 10% SDS (sodium dodecylsulfate) (2 μL), 50% glycerol (5 μL), and bromophenol blue (2 μL) were added to the samples. The contents of the tubes were mixed with a Vortex mixer then centrifuged to consolidate the samples. The agarose gel was covered with TBE-buffer in the chamber. The samples were loaded onto the agarose gel and run at 40 V for three hours, or when the band were about three/fourths of the way down the gel.
# The gel was removed and stained with methylene blue (45 min). At this time, the stained gel was placed in a water chamber overnight. The intensities of each band i.e. Form I and II were determined using densitometry.
# plasmid pBR322 DNA = test: Taq polymerase stop assay; type: biochemical
# [1] = test system: K562 human chronic myeloid leukemia cells; test: MTT cytotoxicity on K562 cells; type: cell-based
# [2] = test system: human colon adenocarcinoma cell line, LS 174T; test: SRB cytotoxicity on LS174T cells; type: cell-based
# Protocol: Cells were seeded in 96-well microtiter plates at densities of 1000 cells/well. The optimal seeding density was determined to ensure exponential growth in control wells throughout the experimental period and to obtain a linear relationship between absorbance at 492 nm and cell number when analyzed by the sulforhodamine B (SRB) assay (43). 24 hours after seeding the cells were incubated for 1 hour or continuously for 3 days with the drugs (concentration range 0.01 to 500 μM). The cells were washed once and then incubated in drug free medium for 6 days. At the end of the incubation cell growth was determined by the SRB assay, which quantifies viable cells by measuring their total cellular protein content. […] Similar studies were conducted against the growth of PC3 (human prostate cancer cells) and MCF-7 (human breast cancer cells).
# [3] = mice; therapeutic doses; cited from earlier work
# [4] = test system: mouse L1210 leukemia cells; conditions: cited from earlier work; for IC50 values (range in words): growth of mouse L1210 leukemia cells in culture
# [5] = test system: panel of 60 human cancer cell lines; test: NCI in-vitro cytotoxicity screen, whole panel; type: cell-based; conditions: for range of activity: 48 hour exposure
# [6] = test system: human tumor cells in hollow fibers; test: NCI hollow fiber assay, all cell lines; type: in vivo, mice
# [7] = Homo sapiens, K562, 1 h, read-out: IC50 1 hour exposure
# [8] = 0.1 mM compound, 40° C. for 40 h
molecule,measurement,setting,value
CCN(CC)c1ccc2cc(C(=O)Nc3ccc4[nH]c(C(=O)N5C[C@@H](CCl)c6c5cc(OC(=O)Nc5ccccc5)c5[nH]cc(C)c65)cc4c3)oc2c1 [carzelesin],ILS,L1210 leukemia,150±8%
same,survival,L1210 leukemia,2/6
N-[(N-(4-Aminobutyl)-N-methylimidazole-4-(N-methylpyrrole-2-carboxamido)-2-carboxamido)]-N-[5-(4-(2-chloroethyl)phenol-3-yl)benzofuran-2-carboxamido)]glutarodiamide hydrochloride [Compound 19],IC50,P815 mastocytoma cells,> 100 µM
same,IC50,L1210 leukemia cells,> 100 µM
same,Form II DNA (%),supercoil pBR322 DNA,quantitative
same,additional unique alkylation site,plasmid pBR322 DNA,3′-(G)CA-5′
same,alkylation of the 5′-AAAAA sequence,plasmid pBR322 DNA,did not alkylate
same,alkylation selectivity (sequence),plasmid pBR322 DNA,3′-ATTT-5′
"COc1cc2cc(C(=O)N3CC(CCl)c4c3cc(O)c3ccccc43)[nH]c2c(OC)c1OC (stereo not shown) [Compound 28, seco-CBI-trimethoxyindole, reference compound]",covalent DNA AT sequence selectivity,plasmid pBR322 DNA,preferentially at a five consecutive A(865)AAAA sequence
4-(2-Bromoethyl)-3-[5-(5-benzofuran-2-carboxamido)indole-2-carboxamido]phenol [Compound 2],IC50,"[1]; K562 cells, continuous exposure (3 days), read-out: IC50 continuous exposure (3 days)",1.6 ± 0.9 µM
same,IC50,"[1]; read-out: IC50 1 hour exposure, K562 cells, 1 hour exposure",23.8 ± 9.7 µM
same,sequence selectivity,plasmid pBR322 DNA,stronger sequence selectivity than 27
same,efficiency in alkylating DNA,plasmid pBR322 DNA; compared with chloro-compound 1,less efficient in alkylating DNA
"Cl.Cn1cc(NC(=O)c2cccn2C)cc1C(=O)NCCCCNC(=O)CCCC(=O)Nc1ccc2oc(C(=O)Nc3cc(O)ccc3CCCl)cc2c1 [Compound 17, N-[(N-(4-Aminobutyl)-N-methylpyrrole-4-(N-methylpyrrole-2-carboxamido)-2-carboxamido)]-N-[5-(4-(2-chloroethyl)phenol-3-yl)benzofuran-2-carboxamido)]glutarodiamide hydrochloride]",IC50,P815 mastocytoma cells,61 µM
same,IC50,L1210 leukemia cells,64 µM
"CCCC(=O)Nc1cc(C(=O)Nc2cc(C(=O)Nc3ccc(O)cc3CCBr)n(C)c2)n(C)c1 [Compound 7, N-(2-(2-Bromoethyl)-4-hydroxyphenyl)-1-methyl-4-(1-methyl-4-butanamidopyrrole-2-carboxamido)pyrrole-2-carboxamide]",IC50,"[2]; Homo sapiens, 1 h, read-out: IC50 LS174T 1 hour exposure",237 µM
same,activity in words,[2]; one hour exposure,not active
same,IC50,[1]; [7],> 100 µM
same,IC50,"[1]; Homo sapiens, K562, 72 h, read-out: IC50 continuous exposure (3 days)",3.64 ± 0.05 µM
same,activity in words,"[1]; K562, one hour exposure",not active
"COc1cc2cc(C(=O)Nc3cc(N)ccc3CCCl)[nH]c2c(OC)c1OC [Compound 24, 4-(2-Chloroethyl)-3-(5,6,7-trimethoxyindole-2-carboxamido)aniline]",Form II DNA (%),supercoil pBR322 DNA; [8],quantitative
"COc1c2c(c3cc(C(=O)N4CCc5c4c(OC)c(O)c4[nH]c(C(=O)N6CC7C[C@@]78C6=CC(=O)c6[nH]cc(C)c68)cc54)[nH]c3c1O)CCN2C(N)=O (single isomer, unassigned; (+)) [(+)-CC1065]",delayed lethality / delayed toxicity,[3],delayed lethality
same,IC50,[4]; L1210,0.02 nM
same,IC50 values (range in words),[4],pM range
"COc1cc2cc(C(=O)Nc3cc(N)c4ccccc4c3CCCl)[nH]c2c(OC)c1OC [Compound 25, 4-(2-chloroethyl)-3-(5,6,7-trimethoxyindole-2-carboxamido)-1-naphthylamine]",range of activity,[5],micromolar range
same,activity against leukemia cells,[5],none of these compounds showed much activity
same,activity against melanoma cells,[5],active
same,activity against solid tumors cells,[5],strong activity
same,cell kill,[6],cell kill observed
same,composite score,[6]; IP+SC,54
same,IP score,[6]; intraperitoneal fibers,46
same,SC score,[6]; subcutaneous fibers,8
same,Form II DNA (%),supercoil pBR322 DNA; [8],quantitative
same,covalent DNA AT sequence selectivity,plasmid pBR322 DNA,preferentially at a five consecutive A(865)AAAA sequence
"COC(=O)c1cc2c([nH]1)C(=O)C=C1N(C(=O)c3cc4cc(OC)c(OC)c(OC)c4[nH]3)CC3CC123 (single isomer, unassigned; (+)) [DUMSA, (+)-duocarmycin SA]",delayed lethality / delayed toxicity,[3],devoid of this toxic side effect
same,IC50 values (range in words),[4],pM range
Cc1c[nH]c2c(O)cc3c(c12)[C@H](CCl)CN3C(=O)c1cc2cc(NC(=O)Nc3ccc4[nH]c(C(=O)N5C[C@@H](CCl)c6c5cc(O)c5[nH]cc(C)c65)cc4c3)ccc2[nH]1 [Bizelesin],IC50,[4],0.001 nM
same,potency relative to (+)-CC1065,[4],20-30 times
N-[(N-(4-Aminobutyl)-N-methylpyrrole-4-(N-methylimidazole-2-carboxamido)-2-carboxamido)]-N-[5-(4-(2-chloroethyl)phenol-3-yl)benzofuran-2-carboxamido)]glutarodiamide hydrochloride [Compound 18],IC50,P815 mastocytoma cells,> 100 µM
same,IC50,L1210 leukemia cells,> 100 µM
same,Form II DNA (%),supercoil pBR322 DNA,quantitative
same,additional unique alkylation site,plasmid pBR322 DNA,3′-GCAACG-5′
same,alkylation of the 5′-AAAAA sequence,plasmid pBR322 DNA,did not alkylate
same,alkylation selectivity (sequence),plasmid pBR322 DNA,3′-ATTT-5′
"COc1cc2cc(C(=O)Nc3cc(O)c4ccccc4c3CCCl)[nH]c2c(OC)c1OC [Compound 26, 4-(2-Chloroethyl)-3-(5,6,7-trimethoxyindole-2-carboxamido)-1-naphthol]",range of activity,[5],micromolar range
same,activity against leukemia cells,[5],none of these compounds showed much activity
same,activity against melanoma cells,[5],active
same,activity against solid tumors cells,[5],strong activity
same,Form I DNA (%),supercoil pBR322 DNA; [8],0%
same,Form II DNA (%),supercoil pBR322 DNA; [8],quantitative
same,covalent DNA AT sequence selectivity,plasmid pBR322 DNA,preferentially at a five consecutive A(865)AAAA sequence
Cl.Cn1cc(NC(=O)c2cccn2C)cc1C(=O)NCCCCNC(=O)CCCC(=O)Nc1ccc2oc(C(=O)Nc3cc(O)ccc3CCCl)cc2c1 [Compound 17],Form II DNA (%),supercoil pBR322 DNA,quantitative
same,alkylation of the 5′-AAAAA sequence,plasmid pBR322 DNA,did not alkylate
same,alkylation selectivity (sequence),plasmid pBR322 DNA,3′-ATTT-5′
"CCCC(=O)Nc1cc(C(=O)Nc2cc(C(=O)Nc3ccc(O)cc3CCCl)n(C)c2)n(C)c1 [Compound 6, N-(2-(2-Chloroethyl)-4-hydroxyphenyl)-1-methyl-4-(1-methyl-4-butanamidopyrrole-2-carboxamido)pyrrole-2-carboxamide]",IC50,[1]; [7],> 30 µM
